Laboratory results taken from US20250154238A1, “METHODS AND COMPOSITIONS FOR TREATING AND PREVENTING FIBROSIS” (YALE UNIVERSITY, priority 2022, published 2025).
pIC50, pKd: −log10 of the molar value.

Tests used:
[1] = tested on: lung explants from a patient with IPF; experiment: IPF patient lung explant culture, gene expression and secreted proteins; assay type: cell-based, human; conditions: 10 days; nintedanib 0.1 μM, Alk5i 10 μM, Ereg Ab 2.5 μg/ml
Method: FIGS. 13A-13I show epiregulin inhibition reduces mouse and human lung fibrosis. (FIGS. 13A-13E) As diagramed in (FIG. 13A), 10 days after intratracheal bleomycin mice began treatment with epiregulin antibody for two weeks prior to euthanasia. Lungs were analyzed for histology (FIG. 13B), modified Ashcroft score (FIG. 13C), hydroxyproline (FIG. 13D) and epiregulin gene expression (FIG. 13E), n=6 (PBS), 11 (BLM), and 7 (Ereg Ab). Histology images in (FIG. 13B) are 10× magnification with 200 μm scale bars and IHC images are 40× magnification with 40 μm scale bars. […] The same tissue was cut into cubes and cultured for 10 days in the presence of the multikinase inhibitor nintedanib 0.1 μM (Nin), the Alk5 inhibitor A-1544033 (IN-1130) 10 μM (Alk5i), epiregulin antibody 2.5 μg/ml (Ereg Ab) or non-treated vehicle control (NT). (FIGS. 13G-13I) Relative expression of indicated genes, n=4 per group. (FIG. 13I) Protein secretion of indicated genes measured by ELISA, n=8 per group. ELISA samples with poor signal and qPCR outliers identified by Grubbs's test with alpha-0.05 were excluded. Data are means±SD (ns, not significant. * P<0.05, ** P<0.01, **** P<0.0001) analyzed with one-way analysis of variance (ANOVA) with Tukey multiple-comparisons test (FIGS. 13C-13E) and Dunnett's multiple-comparisons test (FIGS. 13G-13I).
Pathologic assessment confirmed the diagnosis of early IPF, as evidenced by the presence of fibroblastic foci and hyperplasia of alveolar type II epithelial cells as shown in FIG. 13F. Lung tissue was plated in 24 well plates and cultured for 10 days with media changes every two days. The impact of epiregulin antibody compared to the multikinase inhibitor nintedanib and a transforming growth factor beta type I receptor TGF-βRI/Alk5 small molecule inhibitor was assessed by measuring disease relevant endpoints in gene expression and protein production. At the gene level, reduction in epiregulin expression was observed which was similar to that seen in mouse lung by both epiregulin and TGF-βRI inhibition (FIG. 13G, left panel). […] ECM-remodeling and inflammation. […]
For lung explants, human IPF lung (person) was obtained from the National Disease Research Interchange (NDRI), kept cold, and received <24 hours after cross-clamp. […] After 10 days, culture supernatants were collected, pre-cleared at 4000× g (4° C. 10 mins), transferred to a clean 96 well polypropylene plate and stored at −80° C., until protein endpoints measured. Measured secreted proteins include: human MCP-1 V-Plex (MesoScale Discovery, K151NND-1), human TIMP-1 (MesoScale Discovery, K151JFC-1) and human pro-collagen 1α1 DuoSet Elisa (R&D systems, DY6220-05). All proteins were assayed and analyzed in accordance with their respective assay product datasheets. […]

[2] = data from European Medicines Agency; read-out: KD (×10^−12); cited from earlier work
[3] = data from European Medicines Agency; tocilizumab from reference 80; cited from earlier work

Compound	COL1A1 gene expression, IPF lung explant [1]	epiregulin gene expression, IPF lung explant [1]	pro-COL1A1 protein level, IPF lung explant [1]	pKd [2]	pIC50 [3]
Cc1cccc(-c2[nH]c(Cc3cccc(C(N)=O)c3)nc2-c2ccc3nccnc3c2)n1 [TGF-βRI/Alk5 small molecule inhibitor]	significantly reduced expression	reduction	significant reduction		
COC(=O)c1ccc2c(c1)NC(=O)/C2=C(\Nc1ccc(N(C)C(=O)CN2CCN(C)CC2)cc1)c1ccccc1 [nintedanib]			significant reduction		
Adalimumab				10.06 to 10.24	9.00 to 10.00
Rizankizumab: FDA-approved monoclonal antibody medication				10.54	10.62
Tocilizumab: FDA-approved monoclonal antibody medication				8.60	10.05
